# Source: publication PMC11783601, “Analogue-Sensitive Inhibition of Histone Demethylases Uncovers Member-Specific Function in Ribosomal Protein Synthesis” (Journal of the American Chemical Society, 2025)
# Test system: asKDM4 mutants (KDM4A-F185A, KDM4C-F187A, KDM4D-F189A and KDM4E-F186A)
# Assay: Demethylation of extracted full-length histones, Western blot with H3K9me3 antibody
# Assay type: biochemical, human
# Conditions: histones extracted from HEK293T cells, 20 µM (Fig S19 legend)
# Experimental: We next tested the inhibitory potential of 6 against these proteins using H3K9me3 peptide substrate and analyzed it by MALDI-MS. […] We subsequently examined the ability of asKDM4 variants to demethylate full-length histones extracted from mammalian cells. HEK293T cells were cultured in the presence of 10 μM n-octyl IOX1, a broad-spectrum inhibitor of demethylases,[41],[42] to generate a hypermethylated proteome (Figure S19). The extracted histone was incubated with the as variants individually, each with or without 6, and the extent of demethylation was analyzed by Western blot using the H3K9me3-specific antibody. […]
# directly to ice and 2M Ammonium Acetate was added and left on ice for 5 minutes. […]
# The supernatant was transferred to a fresh 1.5 mL centrifuge tube, 132 µL of TCA was added dropwise to precipitate the histones and incubated on ice for 30 mins to 1.5 hr. […] 1 µL of histone extracts was loaded on a 15% gel with the BSA standards to quantify the amount of H3 for the assay. […]
# (NH4)2Fe(SO4)2, 2 mM L-ascorbic acid and 50 mM Tris pH 8.0 were incubated with or without 150 µM of L-Leu NOG for 5 minutes on ice, after which substrate (300 µM 2OG and 2 µg of Histone extract) was added to the tube. The assay was incubated at 37 °C for 1.5 hours, the samples were analyzed via western blotting using H3K9me3 specific antibody. […]
structure (smiles),measurement,setting,value
"CC(C)CC(NC(=O)C(=O)O)C(=O)O (centres unmarked) [compound 6, N-oxalyl leucine]",inhibition of demethylation of full-length histone H3 by asKDM4 mutants,,noticeably inhibited
same,inhibition of demethylation of full-length histone H3 by asKDM4 mutants,listed as NOL 6,inhibits the mutants
